Results as given in ChEMBL document CHEMBL4376822, “Hot-Spots of Mcl-1 Protein” (J Med Chem, 2020).
One block for each molecule: values may come before it.

Columns and labels:
[1] = molecular target: T1, Apoptosis regulator Bcl-2 (Homo sapiens, UniProt P10415); experiment: Inhibition of human BCl2 expressed in Escherichia coli BL21 (DE3) pLysS cells by surface plasmon resonance assay
[2] = Inhibition of human GST-tagged BCL-XL deltaC25 mutant using biotinylated BIM 26-mer peptide as substrate incubated for 30 mins by AlphaScreen assay
[3] = molecular target: T2, Induced myeloid leukemia cell differentiation protein Mcl-1 (Homo sapiens, UniProt Q07820)
[4] = Inhibition of human GST-tagged BCL-XL deltaC24 mutant using BIMBH3 mutant peptide as substrate by SPR assay
[5] = molecular target: T1, Apoptosis regulator Bcl-2; experiment: Displacement of fluorescein labelled Puma-BH3 peptide from human BCl2 expressed in Escherichia coli BL21 (DE3) pLysS cells incubated for 2 hrs by fluorescence polarization assay
[6] = molecular target: T2, Induced myeloid leukemia cell differentiation protein Mcl-1; experiment: Inhibition of TAMRA-labeled BIM BH3 peptide binding to human Mcl1 (171 to 327 residues) incubated for 120 mins by fluorescence polarization
[7] = molecular target: T2, Induced myeloid leukemia cell differentiation protein Mcl-1; experiment: Displacement of fluorescein labelled Puma-BH3 peptide from His-tagged-TEV fused human Mcl-1 incubated for 2 hrs by fluorescence polarization assay
[8] = molecular target: T1, Apoptosis regulator Bcl-2; experiment: Inhibition of Bcl-2 (unknown origin) by fluorescence polarization assay
[9] = molecular target: T1, Apoptosis regulator Bcl-2; experiment: Inhibition of wild-type BCL-2 (unknown origin) expressed in Escherichia coli BL21 cells using biotinylated BIMBH3 or BAXBH3 peptide by surface plasmon resonance assay

T2 sequence (Q07820 whole entry): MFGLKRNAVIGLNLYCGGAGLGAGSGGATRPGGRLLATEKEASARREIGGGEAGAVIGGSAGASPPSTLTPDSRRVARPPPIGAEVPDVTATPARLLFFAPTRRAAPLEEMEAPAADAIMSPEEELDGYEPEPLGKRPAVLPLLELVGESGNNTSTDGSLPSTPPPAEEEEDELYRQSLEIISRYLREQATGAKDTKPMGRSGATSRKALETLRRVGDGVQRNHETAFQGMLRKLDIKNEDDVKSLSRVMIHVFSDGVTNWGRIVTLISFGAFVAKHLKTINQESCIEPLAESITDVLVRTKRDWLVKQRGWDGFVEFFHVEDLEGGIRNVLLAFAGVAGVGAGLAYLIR
T1 sequence (P10415 whole entry): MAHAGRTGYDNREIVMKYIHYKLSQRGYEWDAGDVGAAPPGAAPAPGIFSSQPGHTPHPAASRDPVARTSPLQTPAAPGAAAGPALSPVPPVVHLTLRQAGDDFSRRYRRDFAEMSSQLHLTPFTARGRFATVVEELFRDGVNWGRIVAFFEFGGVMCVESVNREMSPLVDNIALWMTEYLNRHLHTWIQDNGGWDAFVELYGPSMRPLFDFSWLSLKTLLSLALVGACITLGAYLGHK

- IC50 [1]: 0.0033 µM
SMILES: CC[C@H](C)[C@H](NC(=O)[C@H](CCC(=O)O)NC(=O)[C@H](CCCNC(=N)N)NC(=O)[C@H](C)NC(=O)[C@H](Cc1c[nH]c2ccccc12)NC(=O)[C@H](CCC(N)=O)NC(=O)[C@H](CCC(=O)O)NC(=O)[C@@H](N)CCC(=O)O)C(=O)NCC(=O)N[C@@H](C)C(=O)N[C@@H](CCC(N)=O)C(=O)N[C@@H](CC(C)C)C(=O)N[C@@H](CCCNC(=N)N)C(=O)N[C@@H](CCCNC(=N)N)C(=O)N[C@@H](CCSC)C(=O)N[C@@H](C)C(=O)N[C@@H](CC(=O)O)C(=O)N[C@@H](CC(=O)O)C(=O)N[C@@H](CC(C)C)C(=O)N[C@@H](CC(N)=O)C(=O)N[C@@H](C)C(=O)N[C@@H](CCC(N)=O)C(=O)N[C@@H](Cc1ccc(O)cc1)C(=O)N[C@@H](CCC(=O)O)C(=O)N[C@@H](CCCNC(=N)N)C(=O)O

- IC50 [2]: 0.024 µM
SMILES: O=C(O)c1nc(-c2ccc3c(c2)/C(=N/Nc2nc4ccccc4s2)CCC3)sc1CCCCc1ccccc1

- IC50 [3]: 1.1 µM
SMILES: Cc1ccccc1-c1cccc2c(CCCOc3cccc4ccccc34)c(C(=O)O)[nH]c12

- IC50 [4]: 0.011 µM
SMILES: CN(C)CC[C@H](CSc1ccccc1)Nc1ccc(S(=O)(=O)NC(=O)c2ccc(N3CCN(Cc4ccccc4-c4ccccc4)CC3)cc2)cc1[N+](=O)[O-]

- IC50 [5]: 1.3 µM
SMILES: CCCCN(CCCC)C(=O)c1cc(C)n(-c2ccccc2C(=O)N2Cc3ccccc3C[C@H]2CN)n1

- IC50 [6]: 0.01 µM
SMILES: O=C1NS(=O)(=O)CCOCCCCCCN2C[C@@]3(CCCc4cc(Cl)ccc43)COc3ccc1cc32

- IC50 [5]: 0.5 µM
SMILES: C[N+](C)(CC[C@H](CSc1ccccc1)Nc1ccc(S(=O)(=O)NC(=O)c2ccc(N3CCN(Cc4ccccc4-c4ccc(Cl)cc4)CC3)cc2)cc1[N+](=O)[O-])CC(=O)O

- IC50 [5]: 0.02 µM
SMILES: COc1cc2c(cc1C(CN1CCCC1)c1ccc(-c3ccc(C(=O)NS(=O)(=O)c4ccc(C[C@H](CCN5CCOCC5)CSc5ccccc5)c(S(=O)(=O)C(F)(F)F)c4)cc3)cc1)OCO2 (some centres undefined)

- IC50 [7]: 0.1 µM
SMILES: Cc1n[nH]c(C)c1-c1cccc2c(CCCOc3cccc4ccccc34)c(C(=O)O)[nH]c12

- IC50 [7]: 520 µM
SMILES: CCc1sc2ncnc(N[C@@H](CO)C(=O)O)c2c1-c1ccccc1

- Ki [8]: 0.059 µM
SMILES: O=C(NS(=O)(=O)c1ccc(NC2CCOCC2)c([N+](=O)[O-])c1)c1ccc(N2CCN(CC3=C(c4ccc(Cl)cc4)COCC3)CC2)cc1

- IC50 [2]: 0.77 µM
SMILES: C/C(=N\Nc1nc2ccccc2s1)c1ccc(-c2ccc(S(=O)(=O)NC(=O)CCCCCc3ccccc3)cc2)o1

- Ki [9]: 0.00036 µM
SMILES: NC[C@@H]1Cc2ccccc2CN1C(=O)c1cc2c(cc1-c1cc(C(=O)N(c3ccccc3)c3ccc(O)cc3)c3n1CCCC3)OCO2
